Results on eight molecules are retold here after ChEMBL document CHEMBL5500423, “More than an Amide Bioisostere: Discovery of 1,2,4-Triazole-containing Pyrazolo[1,5-a]pyrimidine Host CSNK2 Inhibitors for Combatting β-Coronavirus Replication” (J Med Chem, 2024).

Broadly, the IC50 is the point on the concentration scale where inhibition reaches its midpoint.

The source made the active and inactive calls. The rule behind the calls is not given here.

For series [1], the target named is T1, Casein kinase II subunit alpha' (Homo sapiens, UniProt P19784). The series is described as follows: Inhibition of NLuc-fused CSNK2A2 (unknown origin) expressed in HEK293 cells incubated for 2 hrs by NanoBRET assay. Type of series: cell-based. A general note: In BRET a luciferase serves as donor, and the signal depends on an acceptor being close.
Target sequence in this assay (P19784 whole entry, the tested form may be a part): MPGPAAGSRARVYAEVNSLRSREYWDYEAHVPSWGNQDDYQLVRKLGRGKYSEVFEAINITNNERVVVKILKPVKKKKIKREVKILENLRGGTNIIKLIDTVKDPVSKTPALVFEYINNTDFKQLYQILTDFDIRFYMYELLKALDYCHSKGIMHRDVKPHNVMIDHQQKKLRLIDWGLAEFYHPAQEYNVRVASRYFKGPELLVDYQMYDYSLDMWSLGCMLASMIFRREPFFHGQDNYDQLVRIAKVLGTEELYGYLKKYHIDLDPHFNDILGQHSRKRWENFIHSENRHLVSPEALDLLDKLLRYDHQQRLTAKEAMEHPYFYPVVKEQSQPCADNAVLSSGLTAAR
Series [2] is described as follows: Cytotoxicity against human A549-ACE2 cells assessed as cell viability at 1 uM incubated for 48 hrs by CellTiter-Glo2 assay relative to control. It is filed as toxicity, cell-based. Conditions: a549-ace2, 48 h. For orientation: Cellular ATP, detected with luciferase, serves as a proxy for viable cell number.
The subject of the next series is Murine hepatitis virus. The series is described as follows: Antiviral activity against Murine hepatitis virus infected in mouse DBT cells preincubated with cells for 1 hrs followed by viral infection and measured after 10 hrs by luminometer. Conditions: Murine coronavirus. Type of series: functional, organism-based.
A short description of series [3]: Kinetic solubility of compound in PBS at pH 7.4 incubated for 24 hrs by HPLC analysis. Type of series: physicochemical. Conditions: buffer, pH 7.4, 24 h.
Series [4] is described as follows: Cytotoxicity against human A549-ACE2 cells assessed as cell viability at 0.1 uM incubated for 48 hrs by CellTiter-Glo2 assay relative to control. It is filed as toxicity, cell-based. The note with it: a549-ace2, 48 h.
Series [5] has as its target Casein kinase 2 (Homo sapiens) (UniProt P67870+P68400+P19784+Q8NEV1). The series is described as follows: Inhibition of CSNK2 downstream signaling in human A549-ACE2 cells assessed as reduction in EIF2S2 phosphorylation at 1 to 5 uM measured after 24 hrs by Western blot analysis. The note with it: dose 1-5 µM. Type of series: cell-based.
In series [6] the target is Casein kinase II subunit alpha (Homo sapiens, UniProt P68400). The series is described as follows: Inhibition of CSNK2A1 (unknown origin) in presence of ATP by Eurofins radiometric enzymatic assay.
Chain of Casein kinase II subunit alpha (P68400 whole entry): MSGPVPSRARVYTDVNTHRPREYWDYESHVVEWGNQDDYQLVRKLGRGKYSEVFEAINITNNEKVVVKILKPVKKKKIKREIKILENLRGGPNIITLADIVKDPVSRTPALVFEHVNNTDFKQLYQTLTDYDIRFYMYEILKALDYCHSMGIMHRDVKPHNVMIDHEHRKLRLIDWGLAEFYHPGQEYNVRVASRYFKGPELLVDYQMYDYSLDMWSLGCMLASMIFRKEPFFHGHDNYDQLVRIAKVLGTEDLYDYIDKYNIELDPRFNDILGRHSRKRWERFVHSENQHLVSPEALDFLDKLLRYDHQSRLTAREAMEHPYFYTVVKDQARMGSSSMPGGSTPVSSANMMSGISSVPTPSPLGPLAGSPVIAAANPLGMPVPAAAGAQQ
Series [7] has as its target Death-associated protein kinase 2 (Homo sapiens, UniProt Q9UIK4). The series is described as follows: Inhibition of human DAPK2 expressed in HEK293 cells incubated for 2 hrs by NanoBRET assay. Type of series: cell-based.
The target in series [8] is T1, Casein kinase II subunit alpha'. The series is described as follows: Inhibition of NLuc-fused CSNK2A2 (unknown origin) expressed in digitonin-permeabilized HEK293 cells incubated for 25 mins by NanoBRET assay. It is filed as cell-based.
A short description of series [9]: Apparent permeability from basolateral to apical side in MDCK-MDR1 cells at 1 uM incubated for 2 hrs by fluorescence plate reader analysis. The note with it: dog, mdck-mdr1, 2 h. It is filed as ADME, cell-based, Canis lupus familiaris.
The target in series [10] is Phosphorylase b kinase gamma catalytic chain, skeletal muscle/heart isoform (Homo sapiens, UniProt Q16816). The series is described as follows: Inhibition of human PHKG1 expressed in HEK293 cells incubated for 2 hrs by NanoBRET assay. It is filed as cell-based.
Chain of Phosphorylase b kinase gamma catalytic chain, skeletal muscle/heart isoform (Q16816 whole entry, canonical isoform): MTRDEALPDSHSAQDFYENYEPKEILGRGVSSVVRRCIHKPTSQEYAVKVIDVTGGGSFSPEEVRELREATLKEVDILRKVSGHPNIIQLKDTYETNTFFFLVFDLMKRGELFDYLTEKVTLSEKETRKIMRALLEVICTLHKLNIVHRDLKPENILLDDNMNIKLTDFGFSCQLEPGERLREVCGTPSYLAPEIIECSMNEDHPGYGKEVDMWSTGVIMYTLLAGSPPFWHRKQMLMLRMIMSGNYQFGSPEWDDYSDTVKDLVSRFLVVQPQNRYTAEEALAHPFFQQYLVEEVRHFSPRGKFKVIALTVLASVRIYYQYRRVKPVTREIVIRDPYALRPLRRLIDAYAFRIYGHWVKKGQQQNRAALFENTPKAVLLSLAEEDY
In series [11] the target is T2, Homeodomain-interacting protein kinase 4 (Homo sapiens, UniProt Q8NE63).
T2 sequence (Q8NE63 whole entry): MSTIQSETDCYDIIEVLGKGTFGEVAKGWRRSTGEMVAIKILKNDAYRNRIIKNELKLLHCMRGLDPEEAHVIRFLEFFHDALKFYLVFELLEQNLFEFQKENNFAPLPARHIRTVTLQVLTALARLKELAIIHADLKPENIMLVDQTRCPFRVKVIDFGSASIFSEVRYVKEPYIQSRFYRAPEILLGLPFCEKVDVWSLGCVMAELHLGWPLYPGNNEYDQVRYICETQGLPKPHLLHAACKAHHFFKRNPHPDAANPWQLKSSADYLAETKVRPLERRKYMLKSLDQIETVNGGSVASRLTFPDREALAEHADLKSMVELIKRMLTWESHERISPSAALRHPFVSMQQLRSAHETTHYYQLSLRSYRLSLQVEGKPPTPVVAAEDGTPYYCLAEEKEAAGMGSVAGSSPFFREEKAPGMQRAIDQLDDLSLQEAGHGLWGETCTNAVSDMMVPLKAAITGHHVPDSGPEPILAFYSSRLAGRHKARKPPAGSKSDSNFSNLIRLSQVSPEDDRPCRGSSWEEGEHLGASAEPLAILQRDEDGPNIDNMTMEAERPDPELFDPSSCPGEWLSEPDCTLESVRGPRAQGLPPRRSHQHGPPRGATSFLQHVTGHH
The series is described as follows: Inhibition of human HIPK4 expressed in HEK293 cells incubated for 2 hrs by NanoBRET assay. It is filed as cell-based.

Series [12] in a line: Intrinsic clearance in male CD-1 mouse at 3 mg/kg, iv measured after 5 hrs by LC-MS/MS analysis. Type of series: ADME, organism-based. Conditions: in vivo.
Series [13] deals with Cyclin-dependent kinase 7 (Homo sapiens, UniProt P50613). The series is described as follows: Inhibition of human CDK7 expressed in HEK293 cells incubated for 2 hrs by NanoBRET assay. It is filed as cell-based.
Chain of Cyclin-dependent kinase 7 (P50613 whole entry): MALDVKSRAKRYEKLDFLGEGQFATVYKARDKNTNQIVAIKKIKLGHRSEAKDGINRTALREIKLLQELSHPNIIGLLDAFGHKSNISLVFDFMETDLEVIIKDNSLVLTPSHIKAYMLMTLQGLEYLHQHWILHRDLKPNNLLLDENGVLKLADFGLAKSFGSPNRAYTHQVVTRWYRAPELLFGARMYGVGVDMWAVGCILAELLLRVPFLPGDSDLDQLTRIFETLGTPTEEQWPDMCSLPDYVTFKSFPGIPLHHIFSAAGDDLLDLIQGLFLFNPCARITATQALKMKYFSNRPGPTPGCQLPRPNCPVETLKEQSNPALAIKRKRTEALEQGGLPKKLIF
Series [14] in a line: Apparent permeability from apical to basolateral side in MDCK-MDR1 cells at 1 uM incubated for 2 hrs by fluorescence plate reader analysis. Type of series: ADME, cell-based, Canis lupus familiaris. The note with it: dog, mdck-mdr1, 2 h.
The target of series [15] is Dual specificity protein kinase CLK4 (Homo sapiens, UniProt Q9HAZ1). The series is described as follows: Inhibition of human CLK4 expressed in HEK293 cells incubated for 2 hrs by NanoBRET assay. Type of series: cell-based.
Chain of Dual specificity protein kinase CLK4 (Q9HAZ1 whole entry): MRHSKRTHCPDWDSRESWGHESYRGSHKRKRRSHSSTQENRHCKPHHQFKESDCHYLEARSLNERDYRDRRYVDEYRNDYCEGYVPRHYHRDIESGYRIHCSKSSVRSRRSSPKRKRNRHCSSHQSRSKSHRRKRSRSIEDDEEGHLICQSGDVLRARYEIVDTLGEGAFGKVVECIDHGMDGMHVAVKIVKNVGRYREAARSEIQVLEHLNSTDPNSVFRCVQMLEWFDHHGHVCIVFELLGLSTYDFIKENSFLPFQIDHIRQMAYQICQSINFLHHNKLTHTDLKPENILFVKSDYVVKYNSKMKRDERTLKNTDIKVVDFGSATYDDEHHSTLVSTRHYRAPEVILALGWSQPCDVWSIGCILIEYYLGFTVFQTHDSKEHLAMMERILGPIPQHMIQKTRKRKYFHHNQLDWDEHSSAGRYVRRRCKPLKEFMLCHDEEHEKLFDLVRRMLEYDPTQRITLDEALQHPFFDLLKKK
Series [16] is described as follows: Cytotoxicity against human A549-ACE2 cells assessed as reduction in cell viability at >10 uM pretreated for 1 hrs followed by mock infection for 2 hrs and replacement with fresh medium containing compound and measured 48 hrs post mock-infection by LDH assay. It is filed as toxicity, cell-based. The note with it: a549-ace2, 49 h.
Series [17] concerns the target T1, Casein kinase II subunit alpha'. The series is described as follows: Inhibition of human CSNK2A2 expressed in HEK293 cells incubated for 2 hrs by NanoBRET assay. It is filed as cell-based.
Target sequence in this assay (P19784 whole entry, the tested form may be a part): as the sequence (P19784 whole entry, the tested form may be a part) above
The target is the same in series [18]. The series is described as follows: Inhibition of CSNK2A2 (unknown origin) in presence of ATP by Eurofins radiometric enzymatic assay.
Target sequence in this assay (P19784 whole entry, the tested form may be a part): as above
Series [19] concerns the target Dual specificity protein kinase CLK1 (Homo sapiens, UniProt P49759). The series is described as follows: Inhibition of human CLK1 expressed in HEK293 cells incubated for 2 hrs by NanoBRET assay. It is filed as cell-based.
Series [20] addresses Dual specificity tyrosine-phosphorylation-regulated kinase 1A (Homo sapiens) (UniProt Q13627). The series is described as follows: Binding affinity to human DYRK1A expressed in HEK293 cells assessed as target occupancy upto 3 uM incubated for 2 hrs by NanoBRET assay. It is filed as cell-based.
Series [21] deals with Dual specificity protein kinase CLK2 (Homo sapiens, UniProt P49760). The series is described as follows: Inhibition of human CLK2 expressed in HEK293 cells incubated for 2 hrs by NanoBRET assay. It is filed as cell-based.
Chain of Dual specificity protein kinase CLK2 (P49760 whole entry): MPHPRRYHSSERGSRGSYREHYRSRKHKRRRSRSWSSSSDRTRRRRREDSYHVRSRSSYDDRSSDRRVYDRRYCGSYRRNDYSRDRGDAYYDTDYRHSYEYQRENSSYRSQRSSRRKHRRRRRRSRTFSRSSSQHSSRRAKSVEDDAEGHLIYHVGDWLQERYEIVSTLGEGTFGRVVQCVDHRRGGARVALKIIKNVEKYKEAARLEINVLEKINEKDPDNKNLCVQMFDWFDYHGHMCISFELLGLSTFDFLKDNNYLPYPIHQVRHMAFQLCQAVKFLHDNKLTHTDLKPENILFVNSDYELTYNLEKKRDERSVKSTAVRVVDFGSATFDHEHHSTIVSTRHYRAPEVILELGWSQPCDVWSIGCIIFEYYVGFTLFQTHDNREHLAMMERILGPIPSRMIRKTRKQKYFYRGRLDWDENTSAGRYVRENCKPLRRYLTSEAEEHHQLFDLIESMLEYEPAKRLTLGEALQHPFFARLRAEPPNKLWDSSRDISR

Chain of Dual specificity protein kinase CLK1 (P49759 whole entry): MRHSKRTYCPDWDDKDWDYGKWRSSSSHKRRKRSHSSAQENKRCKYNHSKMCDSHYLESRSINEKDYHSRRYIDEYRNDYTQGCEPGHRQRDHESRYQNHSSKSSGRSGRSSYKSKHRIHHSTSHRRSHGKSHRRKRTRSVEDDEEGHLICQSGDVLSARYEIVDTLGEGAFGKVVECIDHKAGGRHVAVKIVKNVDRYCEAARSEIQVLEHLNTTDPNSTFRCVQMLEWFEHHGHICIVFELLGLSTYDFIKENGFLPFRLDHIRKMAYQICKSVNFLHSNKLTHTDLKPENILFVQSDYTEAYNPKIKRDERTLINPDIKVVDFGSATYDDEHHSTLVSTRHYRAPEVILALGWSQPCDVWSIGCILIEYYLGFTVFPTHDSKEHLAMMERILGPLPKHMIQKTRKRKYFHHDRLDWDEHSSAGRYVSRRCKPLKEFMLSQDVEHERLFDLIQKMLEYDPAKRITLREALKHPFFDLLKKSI
Chain of Death-associated protein kinase 2 (Q9UIK4 whole entry, the tested form may be a part): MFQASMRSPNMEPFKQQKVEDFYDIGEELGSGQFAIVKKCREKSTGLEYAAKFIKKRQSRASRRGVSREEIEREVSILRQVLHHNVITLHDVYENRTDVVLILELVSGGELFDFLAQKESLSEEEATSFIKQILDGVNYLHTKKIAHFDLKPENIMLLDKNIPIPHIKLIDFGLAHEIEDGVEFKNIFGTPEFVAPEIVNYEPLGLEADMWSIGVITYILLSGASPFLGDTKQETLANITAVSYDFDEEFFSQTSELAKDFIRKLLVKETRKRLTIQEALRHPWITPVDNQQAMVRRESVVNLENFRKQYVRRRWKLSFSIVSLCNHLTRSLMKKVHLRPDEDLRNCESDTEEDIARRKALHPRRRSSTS

Consider `N#Cc1cnn2c(NC3CC3)cc(Nc3ccnc(-n4cnnc4)c3)nc12`, for which the IC50 was 10 nM in [1] and 63.1 nM in the series on Murine hepatitis virus. The Activity in [2] stood at 98%; in series [4] it was 99%. In series [3], this molecule showed a Kinetic_solubility of 0.27 µg/mL.

For the molecule `CCN(CCN)c1ccc(Nc2cc(NC3CC3)n3ncc(C#N)c3n2)cc1-n1cnnc1`, the inhibition entry in series [5] is “Active”. The IC50 in series [1] was 316 nM; in series [6], 1.7 nM; in series [7] it was 2510 nM; in [8], 80 nM; in series [10], 6310 nM; in series [11] it was 25100 nM. The IC50 in the series with Murine hepatitis virus was 200 nM; in series [13], 15800 nM; in series [15] it was 2510 nM; in [17], 316 nM; in series [18], 0.66 nM; in series [19], 5010 nM. In series [21], this molecule gave an IC50 of 3160 nM. The inhibition entry in series [8] is “Dose-Dependent Effect”. Further, the Papp is 0.36 10^-6 cm/s in series [9] and 0.16 10^-6 cm/s in series [14]. In series [12], this molecule displayed a CL of 86 mL/min/kg. Moreover, in series [16], the Activity entry is given as “Non-Toxic”. For the same molecule, in [20], the result was inactive.

In the case of `CN(CCO)c1ccc(Nc2cc(NC3CC3)n3ncc(C#N)c3n2)cc1-n1cnnc1`, the IC50 was 126 nM in series [1] and 200 nM with Murine hepatitis virus. In addition, the Activity in series [2] was found to be 97%; in series [4], 95%. In series [3], this molecule came in with a Kinetic_solubility of 38 µg/mL.

As to `C[C@H](N)CN(C)c1ccc(Nc2cc(NC3CC3)n3ncc(C#N)c3n2)cc1-n1cnnc1`, the IC50 in series [1] was 316 nM; in the series on Murine hepatitis virus, 200 nM. Also, the values for the Activity in series [2] and in series [4] were 76% and 93%, respectively. Also, the Kinetic_solubility in [3] worked out at 50 µg/mL.

With `CCN(CC)CCN(C)c1ccc(Nc2cc(NC3CC3)n3ncc(C#N)c3n2)cc1-n1cnnc1`, the figures for the IC50 (in series [1]; in the series with Murine hepatitis virus) were 100 nM and 794 nM, respectively. The Activity in [2] came to 100%; in series [4], 98%. The Kinetic_solubility in [3] amounted to 60 µg/mL.

In the case of `N#Cc1cnn2c(NC3CC3)cc(Nc3ccc(F)c(-n4cnnc4)c3)nc12`, the values for the IC50 (in series [1]; in the series with Murine hepatitis virus) were 5.01 nM and 316 nM, respectively. Moreover, the Activity in [2] and in series [4] was 99% in each case. The Kinetic_solubility in series [3] was 0.3 µg/mL.

Regarding `N#Cc1cnn2c(NC3CC3)cc(Nc3cccc(-n4cnnc4)c3)nc12`, the results for the IC50 (in series [1]; in the series with Murine hepatitis virus) were 3.98 nM and 39.8 nM, respectively. The results for the Activity in series [2] and in series [4] were 85% and 100%, respectively. Moreover, the Kinetic_solubility in [3] was 0.47 µg/mL.

For `COCCNc1ccc(Nc2cc(NC3CC3)n3ncc(C#N)c3n2)cc1-n1cnnc1`, the IC50 is 126 nM in series [1] and 316 nM with Murine hepatitis virus. Also, the Activity in series [2] and in series [4] was 99% throughout. Besides, the Kinetic_solubility in [3] came out at 0.8 µg/mL.
